Laboratory results published in PubChem BioAssay (NCI).
“And” between values parts separate entries of the source, which are not always exact repeats. Identical values can stand only once.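 Test compounds were applied to cells in 96-well plates for 48 hours at 5 doses. GI50 marks 50% less growth. TGI: total growth inhibition.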

What was measured:
Experiment in all cases: NCI-60 cell line screen, 48 h
[1] = system: SR leukemia
[2] = system: COLO 205 colon
[3] = system: 786-0 renal
[4] = system: TK-10 renal
[5] = system: MALME-3M melanoma
[6] = system: DLD-1 colon
[7] = system: DMS 114 small cell lung
[8] = system: MOLT-4 leukemia
[9] = system: MDA-MB-435
[10] = system: T-47D breast

Compound	GI50 [1]	TGI [1]	GI50 [2]	TGI [2]	GI50 [3]	TGI [3]	GI50 [4]	TGI [4]	GI50 [5]	TGI [5]	GI50 [6]	TGI [6]	GI50 [7]	TGI [7]	GI50 [8]	TGI [8]	GI50 [9]	TGI [9]	GI50 [10]	TGI [10]
CC(=O)[CH-]C(C)=O.CC(=O)[CH-]C(C)=O.[Cl-].[O]=[V]	> 100 µM	> 100 µM	18.2 µM	34.5 µM	20 µM	42.9 µM	24.5 µM	60.6 µM	9.76 µM	27.9 µM	34.6 µM	> 100 µM	35.8 µM	> 100 µM						
CCC[CH2][Sn]1([CH2]CCC)[O]CC[S]1			0.969 µM	3.29 µM	0.516 µM	1.7 µM	0.508 µM	1.39 µM	0.299 µM	1.39 µM	0.47 µM	1.73 µM	0.272 µM	1.26 µM	0.37 µM	2.4 µM				
C[N+](C)(C)C1CC([N+](C)(C)C)C2c3ccccc3C21 (stereo not given)				> 100 µM		> 100 µM		> 100 µM		> 100 µM		> 100 µM		> 100 µM						
C1C[OH+]CCNCC[OH+]CC[OH+]CCN1.N.[Cl-].[Pt+4]			18.9 µM	47.7 µM	> 100 µM	> 100 µM	49.5 µM	> 100 µM	> 100 µM	> 100 µM	46.1 µM	> 100 µM			59.8 µM	> 100 µM				
O=[N+]([O-])c1cc(I)cc(/C=N/NS(=O)(=O)c2ccc(Cl)cc2)c1O		46.2 µM		33.1 µM		42.9 µM		74.4 µM		48.9 µM		59.4 µM				51.5 µM				
O=C(O)CCSC(=O)Nc1cccc2ccccc12		> 100 µM		> 100 µM		> 100 µM		> 100 µM		> 100 µM		> 100 µM		> 100 µM		> 100 µM				
Brc1ccc(C=NC23CC4CC(CC(C4)C2)C3)cc1				> 100 µM		> 100 µM		> 100 µM		> 100 µM		> 100 µM		> 100 µM		> 100 µM				
CC[O-].CC[O-].O=C([CH-]C(=O)c1ccccc1)CCCCCCC(=O)[CH-]C(=O)c1ccccc1.[Ti+4]			> 100 µM	> 100 µM	> 100 µM	> 100 µM	> 100 µM	> 100 µM	> 100 µM	> 100 µM	> 100 µM	> 100 µM			> 100 µM	> 100 µM				
Cc1ccc(/C=N/NS(=O)(=O)c2ccccc2)cc1C		> 100 µM		> 100 µM		> 100 µM		> 100 µM		> 100 µM		> 100 µM		> 100 µM		> 100 µM				
CC(C)CCCCCCCCCCCCC(=O)NCC(=O)NC1C(C)OC(Nc2ncnc3nc[nH]c23)C(O)C1O (stereo not given)	0.00451 µM				0.00182 µM	0.232 µM		0.0096 µM and 0.0809 µM	0.00254 µM			0.105 µM	0.00161 µM and 0.0148 µM	0.263 µM and 0.0506 µM	0.00213 µM	0.00788 µM and 0.0323 µM				
CCOC(=O)CNC(=O)OCc1ccccc1				> 100 µM		> 100 µM		> 100 µM		> 100 µM		> 100 µM		> 100 µM		> 100 µM				
O=C1NC2(CCCC2)C2CCCCC12O (stereo not given)		> 100 µM		> 100 µM		> 100 µM		> 100 µM		> 100 µM		> 100 µM		> 100 µM		> 100 µM				
COC(=O)C1=C(C(=O)ON)[C@@H]2C=C[C@@]1([C@@H](Cc1ccccc1)Nc1ccccc1)O2	2.02 µM	10.4 µM	1.77 µM	3.57 µM	1.85 µM	3.57 µM	1.7 µM	3.08 µM	1.69 µM	3.2 µM					2.86 µM	7.71 µM	4.33 µM	16.5 µM	1.61 µM	4.17 µM
CN[C@@H](Cc1cccc2ccccc12)C(=O)N[C@@H](CC(C)C)B(O)O	0.0163 µM	0.281 µM	0.0427 µM	0.17 µM	0.037 µM	0.18 µM and 0.0671 µM	0.0256 µM	0.0821 µM	0.0121 µM	0.0336 µM and 0.0214 µM						0.0466 µM	0.00425 µM	0.0147 µM	0.0156 µM	0.0372 µM
S=C1SCN(Cc2ccccc2)CN1Cc1ccccc1	0.303 µM	3.02 µM	3.21 µM	11.6 µM	7.63 µM	23.1 µM	3.68 µM	12.6 µM	8.75 µM	26.7 µM					1.44 µM	5.14 µM	2.35 µM	7.16 µM	3.51 µM	21.1 µM
CCc1cccc(NC(=O)Nc2ccc(Oc3ccc4nc(NC(=O)OC)[nH]c4c3)cc2)c1	0.149 µM	> 25 µM	6.8 µM	> 17.9 µM	7 µM	> 25 µM	6.61 µM	> 19.8 µM	2.14 µM	11.1 µM					10.4 µM	> 25 µM	0.0716 µM	0.643 µM	3.56 µM	> 15.6 µM
COc1ccc2nc3c(cc2c1)C(=O)CC(c1ccccc1)C3 (stereo not given)	0.379 µM	> 100 µM	0.732 µM	> 100 µM	2.23 µM	> 100 µM	> 100 µM	> 100 µM	0.432 µM	> 100 µM					0.364 µM	> 100 µM	0.137 µM	0.38 µM	5.34 µM	> 100 µM
COc1ccc(-c2cc(-c3ccc(OC)cc3)nc(NCCCNc3ccnc4cc(Cl)ccc34)n2)cc1	1.43 µM	5.86 µM	1.72 µM	3.58 µM	1.62 µM	2.99 µM	1.97 µM	3.56 µM	1.76 µM	3.26 µM					1.84 µM	6.09 µM	1.73 µM	3.18 µM	1.66 µM	3.9 µM
CCN(CC)CCn1c(=O)c2cc(OC)c(OC)cc2c2ccc3cc4c(cc3c21)OCO4	0.0415 µM	2.51 µM	0.192 µM	16.4 µM	0.479 µM	13.4 µM	13.4 µM	30.3 µM	0.354 µM	14.5 µM					0.0715 µM	3.72 µM	0.795 µM	20.9 µM	0.26 µM	26.4 µM
C[C@]12CCc3nonc3C1CC[C@@H]1C2CC[C@@]2(C)C1CC[C@@H]2O (stereo not given in full)				> 100 µM		> 100 µM		> 100 µM		> 100 µM		> 100 µM		> 100 µM		> 100 µM				

Compound	GI50 [1]	TGI [1]	GI50 [2]	TGI [2]	GI50 [3]	TGI [3]	GI50 [4]	TGI [4]	GI50 [5]	TGI [5]	GI50 [6]	TGI [6]	GI50 [7]	TGI [7]	GI50 [8]	TGI [8]	GI50 [9]	TGI [9]	GI50 [10]	TGI [10]
O=C1c2ccccc2C(=O)c2c1oc1c2c(=O)[nH]c2ccc(Cl)cc21	0.496 µM	3.94 µM	10.5 µM	27.6 µM	0.223 µM	0.543 µM	0.379 µM	1.1 µM	0.226 µM	0.441 µM					0.435 µM	3.14 µM	0.297 µM	1.19 µM	0.256 µM	0.981 µM
COc1ccc(-c2cc(=O)c3cc(C)c(C)c(C(=O)O)c3o2)cc1		> 100 µM		> 100 µM		> 100 µM						> 100 µM		45.6 µM		> 100 µM				
CN(C)CCN(C)C(=O)c1cccc2cccc(C(=O)O)c12		> 100 µM		> 100 µM		> 100 µM		> 100 µM		> 100 µM		> 100 µM		> 100 µM		> 100 µM				
COc1ccc([Se][Se]c2ccc(OC)cc2OC)c(OC)c1				> 100 µM		7.78 µM		16.3 µM		33.2 µM		8.72 µM		4.82 µM		19.2 µM				
N#CC(C(=O)CCC(=O)Nc1cccc(C(F)(F)F)c1)c1ccccc1 (stereo not given)						> 100 µM		> 100 µM		> 100 µM		> 100 µM		> 100 µM		> 100 µM				
Cc1cc(=O)oc2cc3oc(N(C)c4ccccc4)nc(=O)c3cc12		> 100 µM		> 100 µM		> 100 µM		> 100 µM		> 100 µM						> 100 µM		> 100 µM		> 100 µM
C#CCOC(=O)/C=C/C(=O)Oc1ccc2c(C)cc(=O)oc2c1	> 100 µM	> 100 µM	> 100 µM	> 100 µM	> 100 µM	> 100 µM	> 100 µM	> 100 µM	> 100 µM	> 100 µM					> 100 µM	> 100 µM	> 100 µM	> 100 µM	> 100 µM	> 100 µM
CC(=O)NCc1c(C(N)=O)ncn1Cc1ccccc1				> 100 µM		> 100 µM		> 100 µM						> 100 µM		> 100 µM				
CCCCc1n(Cc2ccc3ccccc3n2)cc[n+]1Cc1ccc2ccccc2n1	0.537 µM	4.87 µM	0.535 µM	2.28 µM	4.65 µM	17.3 µM	2.5 µM	10.3 µM	0.946 µM	7.03 µM					1.81 µM	11 µM	0.71 µM	7.78 µM	0.375 µM	6.01 µM
FC(F)(F)c1cc(NC(=S)N2c3ccccc3-n3cccc3C2c2cccnc2)cc(C(F)(F)F)c1 (stereo not given)	4.64 µM	22.7 µM	9.07 µM	21.6 µM	5.31 µM	18.7 µM	2.9 µM	9.39 µM		26.9 µM					3.96 µM	20.2 µM	6.57 µM	22.1 µM	3.89 µM	26.2 µM
COc1ccc(-c2oc3c(OC)c(OC)c(OC)c(O)c3c(=O)c2OC)cc1O	< 0.01 µM	0.112 µM		23.5 µM	< 0.01 µM	11.3 µM		51 µM			0.0674 µM	> 100 µM		0.0784 µM		12.7 µM				
C/C(CC(C)(C)N1CC1)=N\NC(=O)Nc1cccc2ccccc12	2.02 µM	6.13 µM	2.39 µM	7.19 µM	3.04 µM	9.87 µM	2.81 µM	7.23 µM	4.08 µM	18.8 µM					2.59 µM	6.29 µM	6.19 µM	19.9 µM	4.35 µM	17.3 µM
O=S(=O)(O)n1ccnc1 (tested in a mixture with another compound)		> 100 µM		> 100 µM		> 100 µM		> 100 µM		> 100 µM						> 100 µM		> 100 µM		> 100 µM
O=C(Nc1ccccc1Cl)c1ccc(NC2=C(Cl)C(=O)N(C3CCCCC3)C2=O)cc1	3.03 µM	7.87 µM	18.7 µM	38.3 µM	9.64 µM	30.2 µM	20.6 µM	44.3 µM	20.5 µM	51.2 µM					5.56 µM	20.4 µM	9.61 µM	44.1 µM	6.41 µM	34.8 µM
N#CC1(N2CCCC2)CCC2(CC1)OCCO2		> 100 µM		> 10 µM		> 100 µM		> 100 µM		> 100 µM				> 100 µM		> 100 µM				
Fc1ccc(-c2ncn(CCCN3CCOCC3)c2-c2ccncc2)cc1	> 25 µM	> 25 µM	> 25 µM	> 25 µM	> 25 µM	> 25 µM	> 25 µM	> 25 µM	> 25 µM	> 25 µM					> 25 µM	> 25 µM	> 25 µM	> 25 µM	> 25 µM	> 25 µM
CC(C)=Cc1cccc2[nH]c(O)c(N=Nc3ccc(S(N)(=O)=O)cc3)c12	0.593 µM	> 25 µM	> 9.93 µM	> 25 µM	9.07 µM	> 25 µM	2.29 µM	> 25 µM	> 25 µM	> 25 µM					1.74 µM	> 25 µM	> 21.4 µM	> 25 µM	> 25 µM	> 25 µM
CO/C=C(\Br)c1ccc2c(c1)OCO2		> 100 µM				> 100 µM		> 100 µM		> 100 µM				> 100 µM		> 100 µM				
CC(=O)Nc1ccc(OC(C)=O)cc1	< 0.01 µM	1.5 µM	< 0.01 µM	0.01 µM	< 0.01 µM	5.52 µM	10.7 µM	> 100 µM	0.668 µM	24.5 µM					< 0.01 µM	3.79 µM	< 0.01 µM	< 0.01 µM	5.74 µM	> 100 µM
